From US10618944B2, “Tumor suppressor SALL1 as a therapeutic agent for treating cancer” (Saint Louis University, priority 2015, dated 2020) come the findings set out here.

Experiment [1] has as its system MCF-7. Nature of the experiment: Senescence associated β-Galactosidase (SA-β-Gal) staining. It counts as cell-based, human. To be noted: for SALL1-induced senescent cell populations with MAPK inhibitor: 10 μM for 5 days, SALL1-transfected cells. The protocol:
(§1) Senescence associated β-Galactosidase (SA-β-Gal) activity in tumor cells was detected as previously described (30, 33). Briefly, tumor cell lines were transfected with or without plasmids and cultured for 3 or 5 days. Cells were washed in PBS (pH 7.2), fixed in 3% formaldehyde, and followed to incubate overnight at 37° C. with freshly prepared SA-β-Gal staining solution (1 mg/ml X-gal, 5 mM K3Fe[CN]6, 5 mM K4Fe[CN]6, 2 mM MgCl2 in PBS at pH 6.0). The stained cells were washed with H2O and examined with a microscope. For some experiments, SA-β-Gal^+ populations were determined in the transfected tumor cells in the presence of following various inhibitors or combined transfection with shRNAs: ATM inhibitor KU55933 (20 μM, Tocris Bioscience); mTOR inhibitor Rapmycin (5 μM, Sigma); MAPK inhibitors U0126 (10 μM), SB203580 (10 μM) and SP600125 (10 μM), or PI3 Kinase inhibitor Wortminnin (10 μM) (Calbiochemistry), or transfection with shRNAs against p38, ERK and mTOR, for 3 or 5 days. The treated tumor cells were then detected for SA-β-Gal expression.
(§2) The methods for design and construction of shRNA specific for ERK1, ERK2, P38a, JNK1 and mTOR or scrambled lenti-shRNAs, and generation of recombinant lentivirus carrying GFP and shRNA, have been described previously (Peng et al., 2005 and Peng et al., 2007). For virus transfection, concentrated lentiviral supernatant with a multiplicity of infection (MOI) of 5-10 in a total volume of 0.5 ml culture medium was added to the tumor cells growing in 24 well plates containing 8 μg/ml polybrene (Sigma), and then centrifuged at 1000×g for 1 hr at room temperature. Tumor cells were sorted into GFP^+ and GFP^− cells with a FACS ARIA sorter at 3 or 4 days post-transfection. The sorted cells (GFP^+ and GFP^−) were then transfected with or without pcDNA3.1-SALL-1, and induction of senescence was determined.

Experiment [2] concerns E0771. The experiment is described as above. In kind it is cell-based, murine. The note with it: for SALL1-induced senescent cell populations with MAPK inhibitor: 10 μM for 5 days, SALL1-transfected cells. The procedure: as §1, §2
The test system of experiment [3] is ATM-associated DNA damage response in MCF-7. Kind of experiment: DNA damage response markers by FACS. It counts as cell-based, human. To be noted: KU55933 20 μM. The procedure:
(§3) The expression of DNA damage response markers on tumor cells were determined by FACS analysis after staining with anti-human specific antibodies conjugated with either PE or FITC. These human antibodies included: anti-phosphorylated H2Ax, anti-phosphorylated p53 bp, and anti-phosphorylated ATM, which were purchased from Cell Signaling Technology or BD Biosciences. All stained cells were analyzed on a FACSCalibur flow cytometer (BD Bioscience) and data analyzed with FlowJo software (Tree Star).
For orientation: Flow cytometry measures light scatter and fluorescence of single cells or particles in a stream.

The test system of experiment [4] is ATM-associated DNA damage response in E0771. Nature of the experiment: DNA damage response markers by FACS. It counts as cell-based, murine. To be noted: KU55933 20 μM. The procedure: as §3
The mark [5] stands for this setting: pretreated 20 μM for 1 day, then SALL1 transfection, 3 days.

Regarding `O=c1cc(-c2cccc3c2Sc2ccccc2S3)oc(N2CCOCC2)c1` [KU55933], the “SALL1-induced senescence induction with ATM inhibitor” value in experiment [1] (setting [5]) and in experiment [2] (setting [5]) was “prevented the senescence induction” each time. The “phosphorylation of ATM in SALL1-transfected tumor cells with inhibitor” value in experiment [3] and in experiment [4] was “dramatically suppressed” throughout.

For `N#CC(=C(/N)Sc1ccccc1N)/C(C#N)=C(\N)Sc1ccccc1N` [U0126], the “SALL1-induced senescent cell populations with MAPK inhibitor” value in experiment [1] and in experiment [2] was “significantly reduced” each time.

On to `C[S+]([O-])c1ccc(-c2nc(-c3ccncc3)c(-c3ccc(F)cc3)[nH]2)cc1` (centres unmarked) [SB203580], for which the “SALL1-induced senescent cell populations with MAPK inhibitor” value in experiment [1] and in experiment [2] was “significantly reduced” each time.
